From patent publication US20210115104A1, “AMYLIN ANALOGUES” (Zealand Pharma A/S, priority 2015, published 2021)
Where two headings read alike, the source gives them in different places. *1 amine or outer side, *2 acyl side, *3 side chain or, on linkers, in order; H or OH if unused. Where a SMILES comes first, the peptide text is derived from it. Bridges are numbered along the chain shown (N, C = ends). [ ]: non-standard residue; d: D form. The star is where a group is joined. C20 diacid = O=C(O)CCCCCCCCCCCCCCCCCCC(=O)*; γGlu = O=C(O)[C@H](CCC(=O)[*:2])N[*:1]; Hyp = O=C(O)[C@@H]1C[C@@H](O)CN1; NMeI = CC[C@H](C)[C@H](NC)C(=O)O; Sar = CNCC(=O)O

Legend:
[1] = target: T1, human calcitonin receptor (hCTR2) (Homo sapiens, UniProt P30988); assay: hCTR2 cAMP assay (AlphaScreen) in COS7 cells; format: cell-based
T1 construct: expressed in transfected cells
T1 sequence (P30988 25-474): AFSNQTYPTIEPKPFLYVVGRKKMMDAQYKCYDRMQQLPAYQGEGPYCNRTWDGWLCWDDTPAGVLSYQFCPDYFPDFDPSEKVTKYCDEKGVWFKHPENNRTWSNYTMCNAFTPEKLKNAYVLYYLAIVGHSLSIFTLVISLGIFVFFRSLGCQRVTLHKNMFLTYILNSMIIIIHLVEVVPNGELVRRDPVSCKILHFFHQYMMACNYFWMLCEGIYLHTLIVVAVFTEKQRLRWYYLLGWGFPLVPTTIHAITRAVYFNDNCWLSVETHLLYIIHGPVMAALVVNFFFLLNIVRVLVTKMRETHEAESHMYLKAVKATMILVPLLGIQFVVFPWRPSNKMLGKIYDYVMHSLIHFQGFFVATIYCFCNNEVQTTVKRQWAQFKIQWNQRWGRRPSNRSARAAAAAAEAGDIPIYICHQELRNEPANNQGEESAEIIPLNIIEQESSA
Summary of the method: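 cAMP induction, read by AlphaScreen after lysis, gives EC50 values via 4PL curve fitting. Peptides were applied at rising concentrations for 15 min at 37 °C, with IBMX and 0.1% casein in HEPES-buffered Tyrode pH 7.4, to COS7 cells (no endogenous RAMPs) stably expressing human CTR2.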

[2] = target: T2, human amylin receptor 3 (hAMYR3), hCTR2 co-expressed with hRAMP3 (Homo sapiens, UniProt O60896+P30988); assay: hAMYR3 cAMP assay (AlphaScreen) in COS7 cells; format: cell-based
T2 construct: expressed in transfected cells
T2 sequence (P30988 25-474): T1 sequence (P30988 25-474)
T2 sequence (O60896 24-148 partner): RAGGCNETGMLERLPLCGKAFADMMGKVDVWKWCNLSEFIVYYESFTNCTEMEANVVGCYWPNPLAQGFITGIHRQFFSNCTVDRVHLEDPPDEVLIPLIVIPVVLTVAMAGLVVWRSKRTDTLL
Summary of the method: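 EC50 values derive from 4PL curve fits of cAMP (AlphaScreen) in lysates of RAMP-naive COS7 cells stably carrying hCTR2 plus hRAMP3. Peptide dilution series were applied for 15 min at 37 °C in pH 7.4 Tyrode buffer containing 100 µM IBMX and 0.1% casein.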

[3] = Assessment of physical stability (Thioflavin T fibrillation); format: physicochemical; parameters: key: FND = fibrillation not detected; FD = fibrillation detected; details: 1 mg/ml, 40° C., ThT; for Fibrillation pH 4.0 (Ac): 50 mM acetate buffer pH 4.0, 96 hours; for Fibrillation pH 7.0 (His): 50 mM histidine buffer pH 7.0, 96 hours; for Fibrillation pH 7.0 (Phos.): 50 mM phosphate buffer pH 7.0, 96 hours
Summary of the method: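 Fibrillation lag-time, in hours, taken where regressions of the initial stable phase and the growth phase intersect. ThT (40 μM) fluorescence monitored at 40 °C for 96 h, 10-min reads each preceded by 300 s mixing. Peptide at 1 mg/ml in 50 mM buffers: phosphate or histidine pH 7.0, acetate pH 4.0.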

[4] = Assessment of chemical stability (RP-HPLC normalized purity); format: physicochemical
Summary of the method: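 Purity after 7 days at 40° C is expressed relative to T=0 (set to 100) for each pH. Samples at 0.2 mg/ml, pH 4, 6, 7.5 or 9, analyzed by RP-HPLC with UV 220 nm on C8 (ammonium formate) or C18 (TFA) gradients.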

[5] = cAMP induction, COS7 cells expressing hCTR2, Table 1, read-out: hCTR2 EC50
[6] = cAMP induction, COS7 cells expressing hAMYR3, Table 1, read-out: hAMYR3 EC50

Row | SMILES | EC50 [1, 5] | EC50 [2, 6] | Fibrillation pH 4.0 (Ac) [3] | Fibrillation pH 7.0 (His) [3] | Fibrillation pH 7.0 (Phos.) [3] | EC50 [1] | EC50 [2] | Normalized purity pH 4 (Table 5) ([4]; pH 4, repeat of Example 6 for pairs with/without Asn-Asn at 21-22) | Normalized purity pH 6 (Table 5) ([4]; pH 6, repeat of Example 6 for pairs with/without Asn-Asn at 21-22) | Normalized purity pH 7.5 (Table 5) ([4]; pH 7.5, repeat of Example 6 for pairs with/without Asn-Asn at 21-22) | Normalized purity pH 9 (Table 5) ([4]; pH 9, repeat of Example 6 for pairs with/without Asn-Asn at 21-22) | Normalized purity after 7 days, 40° C., pH 4 ([4]; pH 4, 0.2 mg/ml, 7 days, 40° C., Table 1) | Normalized purity after 7 days, 40° C., pH 6 ([4]; pH 6, 0.2 mg/ml, 7 days, 40° C., Table 1) | Normalized purity after 7 days, 40° C., pH 7.5 ([4]; pH 7.5, 0.2 mg/ml, 7 days, 40° C., Table 1) | Normalized purity after 7 days, 40° C., pH 9 ([4]; pH 9, 0.2 mg/ml, 7 days, 40° C., Table 1)
1 | CC[C@H](C)[C@@H](C(=O)N[C@@H](CC(C)C)C(=O)N[C@@H](CO)C(=O)N[C@@H](CO)C(=O)N[C@H](C(=O)N[C@@H](CCC(=O)O)C(=O)N[C@H](C(=O)NCC(=O)N[C@@H](CO)C(=O)N[C@@H](CCC(=O)O)C(=O)N[C@H](C(=O)N1CCC[C@H]1C(N)=O)[C@@H](C)O)C(C)C)[C@@H](C)O)N(C)C(=O)[C@H](C)NC(=O)CN(C)C(=O)[C@H](Cc1ccccc1)NC(=O)[C@@H](NC(=O)[C@H](CO)NC(=O)[C@H](CCCNC(=N)N)NC(=O)[C@H](Cc1c[nH]cn1)NC(=O)[C@H](CC(C)C)NC(=O)[C@H](Cc1ccccc1)NC(=O)[C@H](Cc1c[nH]cn1)NC(=O)[C@H](C)NC(=O)[C@H](CC(C)C)NC(=O)[C@H](CCCNC(=N)N)NC(=O)[C@H](CCC(N)=O)NC(=O)[C@@H](NC(=O)[C@H](C)NC(=O)[C@@H]1CSSC[C@H](NC(=O)[C@H](CCCNC(=N)N)NC(=O)CC[C@H](NC(=O)CCCCCCCCCCCCCCCCCCC(=O)O)C(=O)O)C(=O)N[C@@H](CC(N)=O)C(=O)N[C@@H]([C@@H](C)O)C(=O)N[C@@H](C)C(=O)N[C@@H]([C@@H](C)O)C(=O)N1)[C@@H](C)O)C(C)C [Compound 20, [19CD]-isoGlu-R-C( )-NTAT-C( )-ATQRLAHFLHRSVF-Gly(Me)-A-Ile(Me)-LSSTEVGSETP-NH2] ({C20 diacid-γGlu}-RCNTATCATQRLAHFLHRSVF[Sar]A[NMeI]LSSTEVGSETP-NH2; disulfide 2-7) | 190 pM | 330 pM | FND | FD | FND |  |  |  |  |  |  |  |  |  | 
2 | CC[C@H](C)[C@@H](C(=O)N[C@@H](CC(C)C)C(=O)N[C@@H](CO)C(=O)N[C@@H](CO)C(=O)N[C@H](C(=O)N[C@@H](CCC(=O)O)C(=O)N[C@H](C(=O)NCC(=O)N[C@@H](CO)C(=O)N[C@@H](CO)C(=O)N[C@H](C(=O)N1C[C@H](O)C[C@H]1C(N)=O)[C@@H](C)O)C(C)C)[C@@H](C)O)N(C)C(=O)[C@H](C)NC(=O)CN(C)C(=O)[C@H](Cc1ccccc1)NC(=O)[C@H](CO)NC(=O)[C@H](CO)NC(=O)[C@H](CCCNC(=N)N)NC(=O)[C@H](Cc1c[nH]cn1)NC(=O)[C@H](CC(C)C)NC(=O)[C@H](Cc1ccccc1)NC(=O)[C@H](Cc1c[nH]cn1)NC(=O)[C@H](C)NC(=O)[C@H](CC(C)C)NC(=O)[C@H](CCCNC(=N)N)NC(=O)[C@H](CCC(=O)O)NC(=O)[C@@H](NC(=O)[C@H](C)NC(=O)[C@@H]1CSSC[C@H](NC(=O)[C@H](CCCNC(=N)N)NC(=O)CC[C@H](NC(=O)CCCCCCCCCCCCCCCCCCC(=O)O)C(=O)O)C(=O)NCC(=O)N[C@@H]([C@@H](C)O)C(=O)N[C@@H](C)C(=O)N[C@@H]([C@@H](C)O)C(=O)N1)[C@@H](C)O [Compound 30, [19CD]-isoGlu-R-C( )-GTAT-C( )-ATERLAHFLHRSSF-Gly(Me)-A-Ile(Me)-LSSTEVGSST-Hyp-NH2] ({C20 diacid-γGlu}-RCGTATCATERLAHFLHRSSF[Sar]A[NMeI]LSSTEVGSST[Hyp]-NH2; disulfide 2-7) | 70 pM | 120 pM | FND | FD | FD |  |  |  |  |  |  |  |  |  | 
3 | CC[C@H](C)[C@@H](C(=O)N[C@@H](CC(C)C)C(=O)N[C@@H](CO)C(=O)N[C@@H](CO)C(=O)N[C@H](C(=O)N[C@@H](CCC(=O)O)C(=O)N[C@H](C(=O)NCC(=O)N[C@@H](CO)C(=O)N[C@@H](CC(N)=O)C(=O)N[C@H](C(=O)N1C[C@H](O)C[C@H]1C(N)=O)[C@@H](C)O)C(C)C)[C@@H](C)O)N(C)C(=O)[C@H](C)NC(=O)CN(C)C(=O)[C@H](Cc1ccccc1)NC(=O)[C@H](CC(N)=O)NC(=O)[C@H](CC(N)=O)NC(=O)[C@H](CO)NC(=O)[C@H](CO)NC(=O)[C@H](CCCNC(=N)N)NC(=O)[C@H](CCC(N)=O)NC(=O)[C@H](CC(C)C)NC(=O)[C@H](Cc1ccccc1)NC(=O)[C@H](Cc1c[nH]cn1)NC(=O)[C@H](C)NC(=O)[C@H](CC(C)C)NC(=O)[C@H](CCCNC(=N)N)NC(=O)[C@H](CCC(=O)O)NC(=O)[C@@H](NC(=O)[C@H](C)NC(=O)[C@@H]1CSSC[C@H](NC(=O)[C@H](CCCNC(=N)N)NC(=O)CC[C@H](NC(=O)CCCCCCCCCCCCCCCCCCC(=O)O)C(=O)O)C(=O)N[C@@H](CCC(N)=O)C(=O)N[C@@H]([C@@H](C)O)C(=O)N[C@@H](C)C(=O)N[C@@H]([C@@H](C)O)C(=O)N1)[C@@H](C)O [Compound 99, [19CD]-isoGlu-R-C( )-QTAT-C( )-ATERLAHFLQRSSNNF-Gly(Me)-A-Ile(Me)-LSSTEVGSNT-Hyp-NH2, reference compound] ({C20 diacid-γGlu}-RCQTATCATERLAHFLQRSSNNF[Sar]A[NMeI]LSSTEVGSNT[Hyp]-NH2; disulfide 2-7) |  |  |  |  |  | 3800 pM | 590 pM | A (A = >90%) | A (A = >90%) | B (B = 70-90%) | B (B = 70-90%) |  |  |  | 
4 | CC[C@H](C)[C@@H](C(=O)N[C@@H](CC(C)C)C(=O)N[C@@H](CO)C(=O)N[C@@H](CO)C(=O)N[C@H](C(=O)N[C@@H](CCC(=O)O)C(=O)N[C@H](C(=O)NCC(=O)N[C@@H](CO)C(=O)N[C@@H](CC(N)=O)C(=O)N[C@H](C(=O)N1CCC[C@H]1C(N)=O)[C@@H](C)O)C(C)C)[C@@H](C)O)N(C)C(=O)[C@H](C)NC(=O)CN(C)C(=O)[C@H](Cc1ccccc1)NC(=O)[C@H](CO)NC(=O)[C@H](CO)NC(=O)[C@H](CCCNC(=N)N)NC(=O)[C@H](CCC(N)=O)NC(=O)[C@H](CC(C)C)NC(=O)[C@H](Cc1ccccc1)NC(=O)[C@H](CC(=O)O)NC(=O)[C@H](C)NC(=O)[C@H](CC(C)C)NC(=O)[C@H](CCCNC(=N)N)NC(=O)[C@H](CCC(N)=O)NC(=O)[C@@H](NC(=O)[C@H](C)NC(=O)[C@@H]1CSSC[C@H](NC(=O)[C@H](CCCNC(=N)N)NC(=O)CC[C@H](NC(=O)CCCCCCCCCCCCCCCCCCC(=O)O)C(=O)O)C(=O)N[C@@H](CC(N)=O)C(=O)N[C@@H]([C@@H](C)O)C(=O)N[C@@H](C)C(=O)N[C@@H]([C@@H](C)O)C(=O)N1)[C@@H](C)O [Compound 65, [19CD]-isoGlu-R-C( )-NTAT-C( )-ATQRLADFLQRSSF-Gly(Me)-A-Ile(Me)-LSSTEVGSNTP-NH2] ({C20 diacid-γGlu}-RCNTATCATQRLADFLQRSSF[Sar]A[NMeI]LSSTEVGSNTP-NH2; disulfide 2-7) | 140 pM | 260 pM |  |  |  |  |  |  |  |  |  | A (A = >90%) | A (A = >90%) | A (A = >90%) | A (A = >90%)
